Drawing on patent publication US6767991B1, “Hepatitis C inhibitor peptides” (priority 1997, dated 2004), this text covers IC50 for 30 compounds.

pIC50: −log10 of the molar value. *1 amine or outer side, *2 acyl side, *3 side chain or, on linkers, in order; H or OH if unused. Where a SMILES comes first, the peptide text is derived from it. Where no end group is shown, it is not given here. [ ]: non-standard residue; d: D form. The star is where a group is joined. Acca(2-Et,1R,2R) = CC[C@@H]1C[C@]1(N)C(=O)O; CH2(1-naphthyl) = c1ccc2c(C*)cccc2c1; Glutaryl = O=C(CCCC(=O)[*:2])[*:1]; Hyp = O=C(O)[C@@H]1C[C@@H](O)CN1; NMeI = CC[C@H](C)[C@H](NC)C(=O)O; Chg = N[C@H](C(=O)O)C1CCCCC1; Suc = O=C(CCC(=O)[*:2])[*:1]; Tle = CC(C)(C)[C@H](N)C(=O)O; Ac5c = NC1(C(=O)O)CCCC1; Nva = CCC[C@H](N)C(=O)O; X1 = c1ccc2cc(C*)ccc2c1; Abu = CC[C@H](N)C(=O)O; Ac3c = NC1(C(=O)O)CC1; Boc = CC(C)(C)OC(=O)*; OBn = c1ccc(CO*)cc1; X2 = Brc1cccc(C*)c1; X3 = CC(=O)OCC(=O)*; Bn = c1ccc(C*)cc1

The term pIC50 denotes −log10 of the IC50, conventionally taken in molar units.

T1 sequence (P26663 1027-1206, other chains not shown): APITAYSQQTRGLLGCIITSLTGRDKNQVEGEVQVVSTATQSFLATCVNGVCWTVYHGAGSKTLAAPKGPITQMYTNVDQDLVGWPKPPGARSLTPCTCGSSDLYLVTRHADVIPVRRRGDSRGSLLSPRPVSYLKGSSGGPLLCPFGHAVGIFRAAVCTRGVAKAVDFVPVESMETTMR

One assay concerns the target T1, HCV NS3 protease type 1b/NS4A cofactor peptide (Hepatitis C virus genotype 1b, UniProt P26663).
T1 construct: recombinant HCV NS3 protease (amino acid 1027 to 1206) was cloned in the pET11d bacterial expression vector; made in house; host or cells: E. coli BL21(DE3)pLysS
Nature of the assay: Recombinant HCV NS3 protease/NS4A cofactor peptide radiometric assay. The following applies: Table 1, unmarked values: NS3 protease/NS4A cofactor peptide radiometric assay; read-out: IC50. It is filed as biochemical, HCV genotype 1b. The method, then:
Recombinant HCV NS3 Protease/NS4A Cofactor Peptide Radiometric Assay.
The enzyme was stored at −80° C., thawed on ice and diluted just prior to use in the assay buffer containing the NS4A cofactor peptide.
The substrate used for the NS3 protease/NS4A cofactor peptide radiometric assay, DDIVPC-SMSYTW [SEQ. ID NO. 2], is cleaved between the cysteine and the serine residues by the enzyme. The sequence DDIVPC-SMSYTW [SEQ. ID NO. 2] corresponds to the NS5A/NS5B natural cleavage site in which the cysteine residue in P2 has been substituted for a proline. The peptide substrate DDIVPC-SMSYTW [SEQ. ID NO. […] ID NO. […] [SEQ. ID NO. 5] (molar ratio enzyme: cofactor 1:100) in the absence or presence of inhibitors. The separation of substrate from products is performed by adding avidin-coated agarose beads to the assay mixture followed by filtration. […] ID NO. 4] product found in the filtrate allows for the calculation of the percentage of substrate conversion and of the percentage of inhibition.
Tris and Tris-HCl (UltraPure) were obtained from Gibco-BRL. Glycerol (UltraPure), MES and BSA were purchased from Sigma. TCEP was obtained from Pierce, DMSO from Aldrich and NaOH from Anachemia.
Assay buffer: 50 mM Tris HCl, pH 7.5, 30% (w/v) glycerol, 1 mg/mL BSA, 1 mM TCEP (TCEP added just prior to use from a 1 M stock solution in water).
Substrate: […] [SEQ. ID NO.
ID NO. 3] (˜1 nM final concentration).
The assay was performed in a 96-well polypropylene plate from Costar. Each well contained:
20 μL substrate/tracer in assay buffer;
10 μL±inhibitor in 20% DMSO/assay buffer;
10 μL NS3 protease 1b/NS4 cofactor peptide (molar ratio 1:100).
Blank (no inhibitor and no enzyme) and control (no inhibitor) were also prepared on the same assay plate.
The enzymatic reaction was initiated by the addition of the enzyme/NS4A peptide solution and the assay mixture was incubated for 40 min at 23° C. under gentle agitation. Ten (10) μL of 0.5N NaOH were added and 10 μL 1 M MES, pH 5.8 were added to quench the enzymatic reaction.
Twenty (20) μL of avidin-coated agarose beads (purchased from Pierce) were added in a Millipore MADP N65 filtration plate. The quenched assay mixture was transferred to the filtration plate, and incubated for 60 min at 23° C. under gentle agitation.
The plates were filtered using a Millipore MultiScreen Vacuum Manifold Filtration apparatus, and 40 μL of the filtrate was transferred in an opaque 96-well plate containing 60 μL of scintillation fluid per well.
The % inhibition was calculated with the following equation:
100-[(countsinh-countsblank)/(countsctl-countsblank)×100]
Turning to `CC(=O)N[C@@H](CC(=O)O)C(=O)N[C@H](CCC(=O)O)C(=O)N[C@H](C(=O)N[C@@H](CCC(=O)O)C(=O)N[C@@H](CCC(=O)O)C(=O)NC1(C(=O)O)CC1)C1CCCCC1` [compound 132] (Ac-D[dE][Chg]EE[Ac3c]-OH), the pIC50 was 4.44. With `CC(=O)N[C@@H](CC(=O)O)C(=O)N[C@@H](CCC(=O)O)C(=O)N[C@H](C(=O)N[C@H](C(=O)N[C@@H](CCC(=O)OCc1ccccc1)C(=O)NC1(C(=O)O)CC1)C(C)C)C1CCCCC1` [compound 133] (Ac-DE[Chg]VE(OBn)[Ac3c]-OH), the negative-log IC50 (pIC50) is 4.41. As to `CCC[C@H](NC(=O)[C@@H]1CCCN1C(=O)[C@@H](NC(=O)[C@@H](NC(=O)[C@@H](CCC(=O)O)NC(=O)[C@H](CC(=O)O)NC(C)=O)[C@@H](C)CC)C(C)C)C(=O)O` [compound 128] (Ac-D[dE]IVP[Nva]-OH), the pIC50 is 5.13. For the compound `CC(=O)N[C@@H](CC(=O)O)C(=O)N[C@@H](CCC(=O)O)C(=O)N[C@H](C(=O)N[C@@H](CCC(=O)O)C(=O)N[C@@H](CCC(=O)O)C(=O)N[C@@H](CS)C(=O)O)C1CCCCC1` [compound 131] (Ac-DE[Chg]EEC-OH), the pIC50 is 4.62. In the case of `CC[C@H](C)[C@H](NC(=O)[C@@H](CCC(=O)O)NC(=O)[C@H](CC(=O)O)NC(C)=O)C(=O)N[C@H](C(=O)N1CCC[C@H]1C(=O)N[C@@H](CS)C(=O)O)C(C)C` [compound 105] (Ac-D[dE]IVPC-OH), the pIC50 was 5.82.

Consider Ac-DDIVPC [compound 101], for which the pIC50 was 4.34. `CC(=O)N[C@@H](CC(=O)O)C(=O)N[C@@H](CC(=O)O)C(=O)N[C@H](C(=O)N[C@H](C(=O)N1CCC[C@H]1C(=O)N[C@@H](CS)C(=O)O)C(C)C)C(C)(C)C` [compound 111] (Ac-DD[Tle]VPC-OH): the pIC50 was 4.10. `CC[C@H](C)[C@H](NC(=O)[C@@H](NC(=O)[C@H](CC(=O)O)NC(C)=O)C(C)(C)C)C(=O)N[C@H](C(=O)N1CCC[C@H]1C(=O)N[C@@H](CS)C(=O)O)C(C)C` [compound 108] (Ac-D[Tle]IVPC-OH): the pIC50 is 4.51. For `CC[C@H](NC(=O)[C@@H]1CCCN1C(=O)[C@@H](NC(=O)[C@@H](NC(=O)[C@H](CC(=O)O)NC(=O)[C@H](CC(=O)O)NC(C)=O)[C@@H](C)CC)C(C)C)C(=O)O` [compound 122] (Ac-DDIVP[Abu]-OH), the pIC50 is 3.50. For the compound `CC[C@H](C)[C@H](NC(=O)[C@@H](CC(=O)O)NC(=O)[C@H](CC(=O)O)NC(C)=O)C(=O)N[C@H](C(=O)N1CCC[C@H]1C(=O)N[C@@H](CS)C(=O)O)C(C)C` [compound 104] (Ac-D[dD]IVPC-OH), the pIC50 is 5.07.

As for Ac-DDIVIC [compound 119], the pIC50 is 4.05.

As for `CC[C@H](C)[C@H](NC(=O)[C@H](CC(=O)O)NC(=O)CCC(=O)O)C(=O)N[C@H](C(=O)N1CCC[C@H]1C(=O)N[C@@H](CS)C(=O)O)C(C)C` [compound 103] (Suc-DIVPC-OH), the pIC50 is 4.59. As for `CC[C@H](C)[C@H](NC(=O)[C@H](CC(=O)O)NC(=O)[C@H](CC(=O)O)NC(C)=O)C(=O)N[C@H](C(=O)N1CCC[C@H]1C(=O)NC1(C(=O)O)CC1)C(C)C` [compound 126] (Ac-DDIVP[Ac3c]-OH), the pIC50 was 4.35. As to `CC[C@H](C)[C@H](NC(=O)[C@H](CC(=O)O)NC(=O)[C@H](CC(=O)O)NC(C)=O)C(=O)N[C@H](C(=O)N1CCC[C@H]1C(=O)NC1(C(=O)O)CCCC1)C(C)C` [compound 125] (Ac-DDIVP[Ac5c]-OH), the pIC50 is 3.68.

Still in this assay, the particulars now being: Table 2, unmarked values: NS3 protease/NS4A cofactor peptide radiometric assay; read-out: IC50.
As for `CCC[C@H](NC(=O)[C@@H]1C[C@@H](OCc2cccc3ccccc23)CN1C(=O)[C@@H](NC(=O)[C@@H](NC(=O)[C@H](CC(=O)O)NC(=O)[C@H](CC(=O)O)NC(C)=O)[C@@H](C)CC)C(C)C)C(=O)O` [compound 207] (Ac-DDIV[Hyp](CH2(1-naphthyl))[Nva]-OH), the negative-log IC50 (pIC50) is 6.41. For `CC[C@H](C)[C@H](NC(C)=O)C(=O)N[C@H](C(=O)N1C[C@H](OCc2cccc3ccccc23)C[C@H]1C(=O)NC1(C(=O)O)CC1)C(C)C` [compound 262] (Ac-IV[Hyp](CH2(1-naphthyl))[Ac3c]-OH), the pIC50 is 4.40. As for `CCC[C@H](NC(=O)[C@@H]1C[C@@H](OCc2cccc3ccccc23)CN1C(=O)[C@@H](NC(=O)[C@H]([C@@H](C)CC)N(C)C(=O)CCC(=O)O)C(C)C)C(=O)O` [compound 220] (Suc-[NMeI]V[Hyp](CH2(1-naphthyl))[Nva]-OH), the pIC50 is 4.51. `CC(C)(C)OC(=O)N[C@H](C(=O)N[C@H](C(=O)N1C[C@H](OCc2cccc3ccccc23)C[C@H]1C(=O)NC1(C(=O)O)CC1)C1CCCCC1)C1CCCCC1` [compound 235] (Boc-[Chg][Chg][Hyp](CH2(1-naphthyl))[Ac3c]-OH): the pIC50 is 4.92.

As to `CC(C)[C@H](NC(=O)[C@@H](NC(=O)CCCC(=O)O)C1CCCCC1)C(=O)N1C[C@H](OCc2cccc3ccccc23)C[C@H]1C(=O)NC1(C(=O)O)CC1` [compound 226] (Glutaryl-[Chg]V[Hyp](CH2(1-naphthyl))[Ac3c]-OH), the pIC50 was 6.12. As to `CCC[C@H](NC(=O)[C@@H]1CCCN1C(=O)[C@@H](NC(=O)[C@@H](NC(=O)[C@H](CC(=O)O)NC(=O)[C@H](CC(=O)O)NC(C)=O)[C@@H](C)CC)C(C)C)C(=O)O` (single isomer, unassigned) [compound 273], the pIC50 was 4.76. `CC(=O)OCC(=O)N[C@H](C(=O)N[C@H](C(=O)N1C[C@H](OCc2cccc3ccccc23)C[C@H]1C(=O)NC1(C(=O)O)CC1)C1CCCCC1)C1CCCCC1` [compound 232] (X3-[Chg][Chg][Hyp](CH2(1-naphthyl))[Ac3c]-OH): the pIC50 was 5.85. Regarding `CCC[C@H](NC(=O)[C@@H]1C[C@@H](OCc2cccc3ccccc23)CN1C(=O)[C@@H](NC(=O)[C@@H](NC(=O)CCCC(=O)O)[C@@H](C)CC)C(C)C)C(=O)O` [compound 222] (Glutaryl-IV[Hyp](CH2(1-naphthyl))[Nva]-OH), the pIC50 is 4.70. As to `CC(=O)N[C@H](C(=O)N[C@H](C(=O)N1C[C@H](OCc2cccc(Br)c2)C[C@H]1C(=O)NC1(C(=O)O)CC1)C(C)C)C1CCCCC1` [compound 268] (Ac-[Chg]V[Hyp](X2)[Ac3c]-OH), the pIC50 is 4.62. Still for that read-out and setting: then `CC(=O)N[C@H](C(=O)N[C@H](C(=O)N1C[C@H](Oc2cccc(Br)c2)C[C@H]1C(=O)NC1(C(=O)O)CC1)C(C)C)C1CCCCC1` [compound 240], with 4.38; and `CCC[C@H](NC(=O)[C@@H]1C[C@@H](OCc2cccc3ccccc23)CN1C(=O)[C@@H](NC(=O)[C@@H](NC(=O)CCC(=O)O)[C@@H](C)CC)C(C)C)C(=O)O` [compound 221] (Suc-IV[Hyp](CH2(1-naphthyl))[Nva]-OH), with 4.66. Still for that read-out and setting: then `CC[C@H](C)[C@H](NC(=O)[C@@H](CCC(=O)O)NC(=O)[C@H](CC(=O)O)NC(C)=O)C(=O)N[C@H](C(=O)N1C[C@H](OCc2ccccc2)C[C@H]1C(=O)N[C@@H](CS)C(=O)O)C(C)C` [compound 260] (Ac-D[dE]IV[Hyp](Bn)C-OH), with 6.74; and `CCC[C@H](NC(=O)[C@@H]1C[C@@H](OCc2ccc3ccccc3c2)CN1C(=O)[C@@H](NC(=O)[C@@H](NC(=O)[C@@H](CCC(=O)O)NC(=O)[C@H](CC(=O)O)NC(C)=O)[C@@H](C)CC)C(C)C)C(=O)O` [compound 213] (Ac-D[dE]IV[Hyp](X1)[Nva]-OH), with 7.44.

In the case of `CC[C@H](C)[C@H](NC(=O)[C@H](NC(=O)[C@H](CC(=O)O)NC(C)=O)C(C)C)C(=O)N[C@H](C(=O)N1CCC[C@H]1C(=O)N[C@@H](CS)C(=O)O)C(C)C` [compound 274] (Ac-D[dV]IVPC-OH), the pIC50 is 5.12.

The same assay, now with this note: Table 5; first line of the cell; NS3 protease/NS4A cofactor peptide radiometric assay (Example 38); read-out: IC50.
On to `CC[C@@H]1C[C@]1(NC(=O)[C@@H]1C[C@@H](OCc2ccccc2)CN1C(=O)[C@@H](NC(=O)[C@@H](NC(=O)[C@@H](CCC(=O)O)NC(=O)[C@H](CC(=O)O)NC(C)=O)[C@@H](C)CC)C(C)C)C(=O)O` [compound 517] (Ac-D[dE]IV[Hyp](Bn)[Acca(2-Et,1R,2R)]-OH), for which the pIC50 is 7.12.

Still in this assay, the particulars now being: text b180, values of Table 5; 1R,2R versus 1S,2S isomer at P1; read-out: IC50.
For the compound `CC[C@H]1C[C@@]1(NC(=O)[C@@H]1C[C@@H](OCc2cccc3ccccc23)CN1C(=O)[C@@H](NC(=O)[C@@H](NC(C)=O)C1CCCCC1)C(C)C)C(=O)O` [compound 514], the pIC50 is 4.56.
